Reference: patent publication US9708311B2, “Benzimidazole derivatives as EP4 antagonists” (BAYER PHARMA AKTIENGESELLSCHAFT, priority 2012, dated 2017)

Biological target: human EP4 receptor (Homo sapiens (Human), UniProt P35408)
Assay: Test for antagonism of the human EP4 receptor signal (cAMP HTRF)
Type: cell-based
Conditions: cells expressing hEP4, PGE2 at EC80 (0.4 nM), cAMP TR-FRET; read-out: Antagonism hEP4 IC50
Source text: The binding of the agonist prostaglandin E2 (PGE2) to the EP4 subtype of human hPGE2-R (hEP4-R) induces the activation of membrane-bound adenylate cyclases and thus the formation of cAMP. In the presence of the phosphodiesterase inhibitor IBMX, this cAMP accumulates intracellularly and is employed in a competitive detection procedure after cell lysis. In this procedure, it competes with a fluorescence-labelled cAMP (cAMP-d2) for binding to an Eu cryptate-labelled anti-cAMP antibody. In the absence of cellular cAMP, a complex is formed between the Eu cryptate-labelled anti-cAMP antibody and the cAMP-d2 molecule, which after excitation at 337 nm makes possible an energy transfer based on FRET (fluorescence resonance energy transfer) to the cAMP-d2 tracer and leads to a long-lasting fluorescence signal (emission at 665 and 620 nm). This signal is time-resolved, i.e. measured in a suitable measuring apparatus after decay of the background fluorescence (time resolved; TR-FRET). The wave ratio determination (emission 665 nm/emission 620 nm*10000) moreover makes it possible to standardize individual measurement differences in the added amounts of the detection reagents.
By means of prostaglandin E2 administration and increase in the intracellular cAMP, a lowering of the FRET signal occurs, which in the case of an antagonistic substance action increases again.
A further 20 min at room temperature later, the cell lysate is measured according to the manufacturer's instructions in a TR-FRET-suitable measuring apparatus (compare cAMP HTRF assay kit: Cisbio International 62AM6PEJ high range)

Chain of human EP4 receptor (P35408 whole entry): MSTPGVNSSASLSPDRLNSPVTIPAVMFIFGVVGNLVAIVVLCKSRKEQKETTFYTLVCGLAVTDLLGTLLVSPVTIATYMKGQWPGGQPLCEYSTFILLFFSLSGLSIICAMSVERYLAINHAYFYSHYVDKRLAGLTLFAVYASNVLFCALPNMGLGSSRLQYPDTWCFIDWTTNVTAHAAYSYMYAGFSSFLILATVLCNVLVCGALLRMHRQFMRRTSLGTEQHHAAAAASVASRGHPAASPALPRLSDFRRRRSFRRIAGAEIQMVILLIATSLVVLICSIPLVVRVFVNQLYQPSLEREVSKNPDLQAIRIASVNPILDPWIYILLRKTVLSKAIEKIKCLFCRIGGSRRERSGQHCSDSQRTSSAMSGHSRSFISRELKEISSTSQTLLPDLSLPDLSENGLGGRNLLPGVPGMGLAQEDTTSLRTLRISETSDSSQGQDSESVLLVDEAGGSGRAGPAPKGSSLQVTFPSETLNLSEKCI

First: C=CCn1c(-c2ccc3c(c2)c2ccccc2n3CC)nc2cc(C(=O)OC)ccc21 [Example 1, Methyl 1-allyl-2-(9-ethyl-9H-carbazol-3-yl)-1H-benzimidazole-5-carboxylate]
Second: C=CCn1c(-c2ccc3c(c2)c2ccccc2n3CC)nc2cc(C(=O)O)ccc21 [Example 2, 1-Allyl-2-(9-ethyl-9H-carbazol-3-yl)-1H-benzimidazole-5-carboxylic acid]
The IC50 of the first is 9.9-fold higher: 3100 nM for the first, 312 nM for the second. The second is the more potent here.

First: CCn1c2ccccc2c2cc(-c3nc4cc(C(=O)OC)ccc4n3CCOC)ccc21 [Example 3, Methyl 2-(9-ethyl-9H-carbazol-3-yl)-1-(2-methoxyethyl)-1H-benzimidazole-5-carboxylate]
Second: CCn1c2ccccc2c2cc(-c3nc4cc(C(=O)NCCOC)ccc4n3CCOC)ccc21 [Example 31, 2-(9-Ethyl-9H-carbazol-3-yl)-N,1-bis(2-methoxyethyl)-1H-benzimidazole-5-carboxamide]
The IC50 of the first is 4.1-fold higher: 175 nM for the first, 42.8 nM for the second. The second is the more potent here.

`CCn1c2ccccc2c2cc(-c3nc4cc(C(=O)OC)ccc4n3CC3CC3)ccc21` [Example 5, Methyl 1-(cyclopropylmethyl)-2-(9-ethyl-9H-carbazol-3-yl)-1H-benzimidazole-5-carboxylate] and `CCn1c2ccccc2c2cc(-c3nc4cc(C(=O)NC)ccc4n3CC3CC3)ccc21` [Example 24, 1-(Cyclopropylmethyl)-2-(9-ethyl-9H-carbazol-3-yl)-N-methyl-1H-benzimidazole-5-carboxamide] are within 1.5-fold of each other in IC50: 404 nM for the first, 338 nM for the second.

First: CCn1c2ccccc2c2cc(-c3nc4cc(C(=O)O)ccc4n3CC3CC3)ccc21 [Example 6, 1-(Cyclopropylmethyl)-2-(9-ethyl-9H-carbazol-3-yl)-1H-benzimidazole-5-carboxylic acid]
Second: CCn1c2ccccc2c2cc(-c3nc4cc(C(N)=O)ccc4n3CC3CC3)ccc21 [Example 26, 1-(Cyclopropylmethyl)-2-(9-ethyl-9H-carbazol-3-yl)-1H-benzimidazole-5-carboxamide]
The IC50 of the first is 12-fold lower: 14.4 nM for the first, 176 nM for the second.

First: CCn1c2ccccc2c2cc(-c3nc4c(Cl)c(C(=O)OC)ccc4n3CC3CC3)ccc21 [Example 7, Methyl 4-chloro-1-(cyclopropylmethyl)-2-(9-ethyl-9H-carbazol-3-yl)-1H-benzimidazole-5-carboxylate]
Second: CCn1c2ccccc2c2cc(-c3nc4c(Cl)c(C(=O)O)ccc4n3CC3CC3)ccc21 [Example 8, 4-Chloro-1-(cyclopropylmethyl)-2-(9-ethyl-9H-carbazol-3-yl)-1H-benzimidazole-5-carboxylic acid]
The IC50 of the first is 73-fold higher: 1430 nM for the first, 19.7 nM for the second.

`CCn1c2ccccc2c2cc(-c3nc4c(C)c(C(=O)O)ccc4n3CC3CC3)ccc21` [Example 9, 1-(Cyclopropylmethyl)-2-(9-ethyl-9H-carbazol-3-yl)-4-methyl-1H-benzimidazole-5-carboxylic acid] and `CCn1c2ccccc2c2cc(-c3nc4cc(C(=O)N(C)C)ccc4n3CC3CC3)ccc21` [Example 25, 1-(Cyclopropylmethyl)-2-(9-ethyl-9H-carbazol-3-yl)-N,N-dimethyl-1H-benzimidazole-5-carboxamide] are within 1.5-fold of each other in IC50: 71.2 nM for the first, 86.3 nM for the second.

First: CCn1c2ccc(-c3nc4cc(C(=O)O)ccc4n3CCOC)cc2c2c(F)cccc21 [Example 11, 2-(9-Ethyl-5-fluoro-9H-carbazol-3-yl)-1-(2-methoxyethyl)-1H-benzimidazole-5-carboxylic acid]
Second: CCn1c2ccc(-c3nc4cc(C(=O)O)ccc4n3CCOC)cc2c2cccc(F)c21 [Example 12, 2-(9-Ethyl-8-fluoro-9H-carbazol-3-yl)-1-(2-methoxyethyl)-1H-benzimidazole-5-carboxylic acid]
The IC50 of the first is 1.6-fold lower: 6.36 nM for the first, 10.2 nM for the second.

Going from `COCCn1c2ccccc2c2cc(-c3nc4cc(C(=O)O)ccc4n3CC3CC3)ccc21` [Example 13, 1-(Cyclopropylmethyl)-2-[9-(2-methoxyethyl)-9H-carbazol-3-yl]-1H-benzimidazole-5-carboxylic acid] to `Cn1c2ccccc2c2cc(-c3nc4cc(C(=O)O)ccc4n3CC3CC3)ccc21` [Example 34, 1-(Cyclopropylmethyl)-2-(9-methyl-9H-carbazol-3-yl)-1H-benzimidazole-5-carboxylic acid], the IC50 rises from 18 nM to 39.4 nM (2.2-fold).

`CCn1c2ccccc2c2cc(-c3nc4cc(C(=O)O)ccc4n3CC3CC3)cnc21` [Example 14, 1-(Cyclopropylmethyl)-2-(9-ethyl-9H-pyrido[2,3-b]indol-3-yl)-1H-benzimidazole-5-carboxylic acid] and `C=CCn1c2ccccc2c2cc(-c3nc4cc(C(=O)O)ccc4n3CC3CC3)ccc21` [Example 33, 2-(9-Allyl-9H-carbazol-3-yl)-1-(cyclopropylmethyl)-1H-benzimidazole-5-carboxylic acid] are within 1.5-fold of each other in IC50: 33.4 nM for the first, 28.7 nM for the second.

`CCn1c2ccccc2c2cc(-c3nc4cc(C(=O)NS(C)(=O)=O)ccc4n3CCOC)ccc21` [Example 15, 2-(9-Ethyl-9H-carbazol-3-yl)-1-(2-methoxyethyl)-N-(methylsulphonyl)-1H-benzimidazole-5-carboxamide] and `CCn1c2ccccc2c2cc(-c3nc4cc(C(=O)NS(=O)(=O)CC)ccc4n3CCOC)ccc21` [Example 18, 2-(9-Ethyl-9H-carbazol-3-yl)-N-(ethylsulphonyl)-1-(2-methoxyethyl)-1H-benzimidazole-5-carboxamide] are within 1.5-fold of each other in IC50: 23.8 nM for the first, 22.8 nM for the second.

Compared with `CCn1c2ccccc2c2cc(-c3nc4cc(C(=O)NS(=O)(=O)C5CC5)ccc4n3CCOC)ccc21` [Example 16, N-(Cyclopropylsulphonyl)-2-(9-ethyl-9H-carbazol-3-yl)-1-(2-methoxyethyl)-1H-benzimidazole-5-carboxamide], `CCn1c2ccccc2c2cc(-c3nc4cc(C(=O)NS(=O)(=O)c5cccc(Cl)c5)ccc4n3CCOC)ccc21` [Example 17, N-[(3-Chlorophenyl)sulphonyl]-2-(9-ethyl-9H-carbazol-3-yl)-1-(2-methoxyethyl)-1H-benzimidazole-5-carboxamide] is 1.9-fold lower in IC50: 28.6 nM for the first, 14.7 nM for the second. The second is the more potent here.

First: CCn1c2ccccc2c2cc(-c3nc4cc(C(=O)NS(=O)(=O)c5ccc(OC)cc5)ccc4n3CCOC)ccc21 [Example 19, 2-(9-Ethyl-9H-carbazol-3-yl)-1-(2-methoxyethyl)-N-[(4-methoxyphenyl)sulphonyl]-1H-benzimidazole-5-carboxamide]
Second: CCn1c2ccccc2c2cc(-c3nc4cc(C(=O)NS(=O)(=O)CCc5ccc(C(F)(F)F)cc5)ccc4n3CCOC)ccc21 [Example 20, 2-(9-Ethyl-9H-carbazol-3-yl)-1-(2-methoxyethyl)-N-({2-[4-(trifluoromethyl)phenyl]ethyl}-sulphonyl)-1H-benzimidazole-5-carboxamide]
The IC50 of the first is 21-fold lower: 32.2 nM for the first, 683 nM for the second.

`CCn1c2ccccc2c2cc(-c3nc4cc(C(=O)NCCOC)ccc4n3CC3CC3)ccc21` [Example 21, 1-(Cyclopropylmethyl)-2-(9-ethyl-9H-carbazol-3-yl)-N-(2-methoxyethyl)-1H-benzimidazole-5-carboxamide] and `CCn1c2ccccc2c2cc(-c3nc4cc(C(=O)NCC(F)(F)F)ccc4n3CC3CC3)ccc21` [Example 27, 1-(Cyclopropylmethyl)-2-(9-ethyl-9H-carbazol-3-yl)-N-(2,2,2-trifluoroethyl)-1H-benzimidazole-5-carboxamide] are within 1.5-fold of each other in IC50: 103 nM for the first, 117 nM for the second.

Compared with `CCn1c2ccccc2c2cc(-c3nc4cc(C(=O)N5CCCC5)ccc4n3CC3CC3)ccc21` [Example 22, [1-(Cyclopropylmethyl)-2-(9-ethyl-9H-carbazol-3-yl)-1H-benzimidazol-5-yl](pyrrolidin-1-yl)methanone], `CCn1c2ccccc2c2cc(-c3nc4cc(C(=O)N5CCOCC5)ccc4n3CC3CC3)ccc21` [Example 29, [1-(Cyclopropylmethyl)-2-(9-ethyl-9H-carbazol-3-yl)-1H-benzimidazol-5-yl](morpholin-4-yl)methanone] is 3.3-fold higher in IC50: 65.7 nM for the first, 219 nM for the second.

`CCn1c2ccccc2c2cc(-c3nc4cc(C(=O)N5CC(O)C5)ccc4n3CC3CC3)ccc21` [Example 23, [1-(Cyclopropylmethyl)-2-(9-ethyl-9H-carbazol-3-yl)-1H-benzimidazol-5-yl](3-hydroxyazetidin-1-yl)methanone] and `CCn1c2ccccc2c2cc(-c3nc4cc(C(=O)N5CCNC(=O)C5)ccc4n3CC3CC3)ccc21` [Example 28, 4-{[1-(Cyclopropylmethyl)-2-(9-ethyl-9H-carbazol-3-yl)-1H-benzimidazol-5-yl]carbonyl}-piperazin-2-one] are within 1.5-fold of each other in IC50: 143 nM for the first, 122 nM for the second.

`CCn1c2ccccc2c2cc(-c3nc4cc(C(=O)N5CCC5)ccc4n3CCOC)ccc21` [Example 30, Azetidin-1-yl[2-(9-ethyl-9H-carbazol-3-yl)-1-(2-methoxyethyl)-1H-benzimidazol-5-yl]methanone] and `CCn1c2ccc(OC)cc2c2cc(-c3nc4cc(C(=O)O)ccc4n3CCOC)ccc21` [Example 32, 2-(9-Ethyl-6-methoxy-9H-carbazol-3-yl)-1-(2-methoxyethyl)-1H-benzimidazole-5-carboxylic acid] are within 1.5-fold of each other in IC50: 30.1 nM for the first, 27.4 nM for the second.

`O=C(O)c1ccc2c(c1)nc(-c1ccc3c(c1)c1ccccc1n3CC1CC1)n2CC1CC1` [Example 35, 1-(Cyclopropylmethyl)-2-[9-(cyclopropylmethyl)-9H-carbazol-3-yl]-1H-benzimidazole-5-carboxylic acid] gave an IC50 of 33.8 nM.
